The record followed here is patent US12534452B2, “N-(1H-imidazol-2-yl)benzamide compound and pharmaceutical composition comprising the same as active ingredient” (KAINOS MEDICINE, INC., priority 2019, dated 2026).

Each structure is given as a SMILES string. A value given as a limit tells only on which side of the number the result lay.

For this experiment, the target named is IRAK4 (Homo sapiens (Human), UniProt Q9NWZ3). The experiment can be described thus: In vitro IRAK4 phosphorylation activity assay. The following applies: [γ-33P]-ATP, myelin basic protein substrate, 40 minutes at room temperature; categories. In kind it is biochemical. Summed up: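 Radiometric filter-binding assay, no compound–kinase preincubation; 8 mM MOPS pH 7.0, 0.2 mM EDTA, 10 mM Mg acetate, 0.33 mg/mL myelin basic protein substrate, [γ-33P]-ATP. Reaction 40 min at room temperature, stopped with phosphoric acid, scintillation counting; IC50 reported in categories.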
Sequence of IRAK4 (Q9NWZ3 whole entry): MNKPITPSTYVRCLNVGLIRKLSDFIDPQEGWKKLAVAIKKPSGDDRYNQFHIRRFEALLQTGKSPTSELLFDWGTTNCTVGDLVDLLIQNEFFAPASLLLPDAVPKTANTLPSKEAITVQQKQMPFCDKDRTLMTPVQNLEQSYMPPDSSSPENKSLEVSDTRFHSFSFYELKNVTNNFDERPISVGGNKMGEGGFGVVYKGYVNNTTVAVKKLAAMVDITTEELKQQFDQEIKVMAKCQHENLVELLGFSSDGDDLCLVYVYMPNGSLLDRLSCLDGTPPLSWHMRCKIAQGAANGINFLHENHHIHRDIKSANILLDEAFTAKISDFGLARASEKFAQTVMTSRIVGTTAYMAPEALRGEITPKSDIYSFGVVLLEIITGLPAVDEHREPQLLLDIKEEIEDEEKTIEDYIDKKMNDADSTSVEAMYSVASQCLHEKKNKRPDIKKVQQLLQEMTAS

Usually IC50 stands for the point on the concentration scale where inhibition reaches its midpoint. In the case of `O=C(Nc1nc(CCCCCCN2CCCCC2)cn1-c1ccccc1)c1cccc(-c2cccnc2)c1` [Example 270, N-(1-phenyl-4-(6-(piperidin-1-yl)hexyl)-1H-imidazol-2-yl)-3-(pyridin-3-yl)benzamide], the IC50 was below 0.05 µM.

Turning to `CN1CCN(C(=O)CCCc2cn(-c3ccccc3)c(NC(=O)c3cccc(-c4ccc5ncsc5c4)c3)n2)CC1` [Example 280, 3-(benzo[d]thiazol-6-yl)-N-(4-(4-(4-methylpiperazin-1-yl)-4-oxobutyl)-1-phenyl-1H-imidazol-2-yl)benzamide], the IC50 was below 0.05 µM.

In turn, `COC[C@H]1CCCN1C(=O)CCCCc1cn(-c2ccccc2)c(NC(=O)c2cccc(-c3cn[nH]c3)c2)n1` [Example 87, (R)—N-(4-(5-(2-(methoxymethyl)pyrrolidin-1-yl)-5-oxopentyl)-1-phenyl-1H-imidazol-2-yl)-3-(1H-pyrazol-4-yl)benzamide] showed a concentration for half-maximal inhibition (IC50) below 0.05 µM.

`CNC(=O)CCCc1cn(-c2ccc(F)cc2F)c(NC(=O)c2cccc(-c3cn[nH]c3)c2)n1` [Example 298, N-(1-(2,4-difluorophenyl)-4-(4-(methylamino)-4-oxobutyl)-1H-imidazol-2-yl)-3-(1H-pyrazol-4-yl)benzamide] showed an IC50 of 0.05 to 0.1 µM.

`Cn1cc(-c2cccc(C(=O)Nc3nc(CCCCC(=O)NCCN4CCOCC4)cn3-c3ccccc3)c2)cn1` [Example 198, 3-(1-methyl-1H-pyrazol-4-yl)-N-(4-(5-((2-morpholinoethyl)amino)-5-oxopentyl)-1-phenyl-1H-imidazol-2-yl)benzamide]: the IC50 was below 0.05 µM.

As for `Cn1cc(-c2cccc(C(=O)Nc3nc(CCC(=O)N4CCNCC4)cn3-c3ccccc3)c2)cn1` [Example 203, 3-(1-methyl-1H-pyrazol-4-yl)-N-(4-(3-oxo-3-(piperazin-1-yl)propyl)-1-phenyl-1H-imidazol-2-yl)benzamide], the IC50 lay in the range of 0.05 to 0.1 µM.

On to `Cn1cc(-c2cccc(C(=O)Nc3nc(CCCC(=O)N4CCC(C#N)CC4)cn3-c3ccccc3)c2)cn1` [Example 168, N-(4-(4-(4-cyanopiperidin-1-yl)-4-oxobutyl)-1-phenyl-1H-imidazol-2-yl)-3-(1-methyl-TH-pyrazol-4-yl)benzamide], for which the IC50 is below 0.05 µM.

The compound `CNC(=O)CCCc1cn(-c2ccccc2)c(NC(=O)c2cccc(-c3ccncc3)c2)n1` [Example 266, N-(4-(4-(methylamino)-4-oxobutyl)-1-phenyl-1H-imidazol-2-yl)-3-(pyridin-4-yl)benzamide] registered an IC50 below 0.05 µM.

The compound `C[C@@H]1CCC[C@H](C)N1C(=O)CCCCCc1cn(-c2ccccc2)c(NC(=O)c2cccc(-c3cn[nH]c3)c2)n1` [Example 97, N-(4-(6-((2R,6S)-2,6-dimethylpiperidin-1-yl)-6-oxohexyl)-1-phenyl-1H-imidazol-2-yl)-3-(1H-pyrazol-4-yl)benzamide] returned an IC50 below 0.05 µM.

In turn, `Cn1cc(-c2cccc(C(=O)Nc3nc(CCCC(=O)Nc4ccn(C)n4)cn3-c3ccccc3)c2)cn1` [Example 190, N-(4-(4-((1-methyl-1H-pyrazol-3-yl)amino)-4-oxobutyl)-1-phenyl-1H-imidazol-2-yl)-3-(1-methyl-1H-pyrazol-4-yl)benzamide] had an IC50 below 0.05 µM.

The compound `Cn1cc(-c2cccc(C(=O)Nc3nc(CCCC(=O)N4CCC(N)CC4)cn3-c3ccccc3)c2)cn1` [Example 209, N-(4-(4-(4-aminopiperidin-1-yl)-4-oxobutyl)-1-phenyl-1H-imidazol-2-yl)-3-(1-methyl-1H-pyrazol-4-yl)benzamide] showed an IC50 below 0.05 µM.

Turning to `O=C(Nc1nc(CCCCCC[N+]2([O-])CCCCC2)cn1-c1ccccc1)c1cccc(-c2cn[nH]c2)c1` [Example 125, 1-(6-(2-(3-(1H-pyrazol-4-yl)benzamido)-1-phenyl-1H-imidazol-4-yl)hexyl)piperidine 1-oxide], the half-maximal inhibitory concentration (IC50) is below 0.05 µM.

The compound `Cn1cc(-c2cccc(C(=O)Nc3nc(CCCCC(=O)N4CCC(N)CC4)cn3-c3ccccc3)c2)cn1` [Example 213, N-(4-(5-(4-aminopiperidin-1-yl)-5-oxopentyl)-1-phenyl-1H-imidazol-2-yl)-3-(1-methyl-1H-pyrazol-4-yl)benzamide] had an IC50 below 0.05 µM.
